From patent US20040072184A1 (priority 2003, published 2004)

Test system: SGK2
Format: cell-based, human

| SMILES | CapK sub (CCPM1) | No-Substrate (CCPM1) | PKB sub (CCPM1) | SGK2 kinase activity (result in words) |
| --- | --- | --- | --- | --- |
| COC[C@@H]([C@H](O)[C@H](O)C(=O)NCC[C@H](C)c1nc(/C=C/C[C@@H]2O[C@]3(C[C@@H](O)[C@@H]2C)O[C@H]([C@H](C[C@H](O)[C@H](C)[C@H](O)[C@H](C)/C=C(C)/C(C)=C/C=C/C(C)=C\C#N)OC)[C@H](OP(=O)(O)O)C3(C)C)co1)N(C)C [Calyculin A] | 59335 CCPM1 | 0 CCPM1 | 92540 CCPM1 | stimulated SGK2 kinase activity |
| C=C1[C@@H](O)[C@@H]2O[C@]3(CC[C@H](/C=C/[C@@H](C)[C@@H]4CC(C)=C[C@@]5(O[C@H](C[C@@](C)(O)C(=O)O)CC[C@H]5O)O4)O3)CC[C@H]2O[C@@H]1[C@@H](O)C[C@H](C)[C@H]1O[C@@]2(CCCCO2)CC[C@H]1C [Okadaic Acid] | 161553 CCPM1 | 2078 CCPM1 | 132171 CCPM1 | stimulated SGK2 kinase activity |
